Series [1] has as its system RVFV. The settings on record: cited from earlier work.
The subject of series [2] is RVFV (MP-12 strain). The experiment in a line: microbe, parasite or virus in culture. The settings on record: Rift Valley fever virus, Vero 76, 120 h, read-out: EC50 (CPE reduction assay).
Series [3] concerns RVFV. The settings on record: in vivo; cited from earlier work.
For series [4], the system named is more than 20 different viruses across eight different virus families. The following applies: read-out: in vitro antiviral potency EC50; cited from earlier work.
Series [5] has as its system RVFV (MP-12 strain).
The subject of series [6] is RVFV (strain ZH501). On the set-up: species or system Syrian golden hamsters. The settings on record: hamster, in vivo, ip.
For series [7] the following is noted: hamster, in vivo, ip; cited from earlier work.
Another series is described as follows: in vitro. The settings on record: African green monkey.
In series [8] the test system is RVFV (strain ZH501). More on the design: species or system Syrian golden hamsters. The following applies: hamster, in vivo.
Series [9] relates to RVFV (MP-12 strain). This is another data set of the same source.
In series [10] the test system is RVFV (strain ZH501). More on the design: species or system Syrian golden hamsters. The settings on record: hamster, in vivo. The source holds these as a separate data set.
The test system of series [11] is RVFV (MP-12 strain). The series is described as follows: microbe, parasite or virus in culture. The following applies: Rift Valley fever virus, Vero 76, read-out: EC90 (VYR).
For series [12], the system named is RVFV. The following applies: hamster, in vivo; cited from earlier work.

The values below come from PMC6035881 (Antiviral Research, 2018).

Several values for one entry are separate records, joined by “and”; a condition that tells them apart may be missing. Equal entries are not always repeated. Bounds are passed on as bounds.

One may read the EC50 as the concentration that produces a half-maximal response. One may read the EC90 as the concentration at which the effect reaches the 90% level. Take `Nc1ncnc2c([C@@H]3N[C@H](CO)[C@@H](O)[C@H]3O)c[nH]c12` [Galidesivir]: in the series with RVFV [1], the EC50 is 41.6 µM and the 90% effect concentration (EC90) was 98 µM. For the same compound, in the series with RVFV (MP-12 strain) [2], the EC50 is 54 µg/mL and 20.4 µM. Also, the “protection in mouse model of RVFV infection” value in the series with RVFV [3] was “partial protection”. In addition, the EC50 in series [4] is less than 50 µM. Moreover, the “SI (CC50/EC50)” value in the series on RVFV (MP-12 strain) [5] is 5.2. For the same compound, the “levels of virus across all tissues and serum, day 2 p.i.” value with RVFV (strain ZH501) [6] is listed as “undetectable”. In addition, the maximum tolerated dose in series [7] is 200 mg/kg/day. Further, the CC50 in “in vitro” was 280 µg/mL and 106 µM. Moreover, in the series with RVFV (strain ZH501) [8], the “animals surviving the lethal RVFV challenge” value is given as 70% and the protection from mortality entry is “up to 70%”. Moreover, the “SI (CC50/EC90)” value in the series on RVFV (MP-12 strain) [9] was determined as 7.6. Also, in the series with RVFV (strain ZH501) [10], the “RVFV in serum, spleen or brain on day 2 p.i.” value is “undetectable” and the “animals with detectable viral load in the liver on day 2 p.i.” value is listed as “only a single animal”. Besides, the EC90 with RVFV (MP-12 strain) [11] was 37 µg/mL and 13.9 µM.
For the compound `NC(=O)c1ncn([C@@H]2O[C@H](CO)[C@@H](O)[C@H]2O)n1` [Ribavirin, reference compound], the survival with RVFV (strain ZH501) [8] is listed as 30%. Further, the “virus in day 2 serum and tissue samples” value in the series on RVFV (strain ZH501) [10] is recorded as “devoid of virus”.
For `NC(=O)c1nc(F)c[nH]c1=O` [favipiravir], the “hamsters protected from lethal RVFV challenge” value in the series with RVFV [12] was 70–80%.
